{
  "source": "paper PMC7617969",
  "about": "“Carboxylic Acid Bioisosteres Boost Nurr1 Agonist Selectivity” (Journal of medicinal chemistry, 2025)",
  "key": {"[1]": {"target": "T1, CAR (Homo sapiens, UniProt Q14994)", "T1 construct": "expressed in transfected cells; host or cells: HEK293T", "T1 sequence (Q14994 109-352 limits assumed)": "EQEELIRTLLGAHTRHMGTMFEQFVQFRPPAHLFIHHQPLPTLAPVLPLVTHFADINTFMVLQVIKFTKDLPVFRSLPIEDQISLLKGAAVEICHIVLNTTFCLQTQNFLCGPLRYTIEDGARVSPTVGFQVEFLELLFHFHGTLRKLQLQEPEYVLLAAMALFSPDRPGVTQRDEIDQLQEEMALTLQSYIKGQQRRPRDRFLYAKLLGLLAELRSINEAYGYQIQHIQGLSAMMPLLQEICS", "experiment": "Gal4 hybrid reporter gene assay, selectivity panel", "format": "cell-based", "settings": "1 µM; relative activation compared to reference agonists", "experimental": "(§1) NR modulation was determined in Gal4 hybrid reporter gene assays in HEK293T cells (German Collection of Microorganisms and Cell Culture GmbH, DSMZ) using pFR-Luc (Stratagene, La Jolla, CA, USA; reporter), pRL-SV40 (Promega, Madison, WI, USA; internal control) and pFA-CMV-hNR-LBD[47],[48] plasmids coding for the hinge region and ligand binding domain of the canonical isoform of the respective NR. Cells were cultured in Dulbecco’s modified Eagle’s medium (DMEM), high glucose supplemented with 10% fetal calf serum (FCS), sodium pyruvate (1 mM), penicillin (100 U/mL), and streptomycin (100 μg/mL) at 37°C and 5% CO2 and seeded in 96-well plates (3×10^4 cells/well). After 24 h, medium was changed to Opti-MEM without supplements and cells were transiently transfected using Lipofectamine LTX reagent (Invitrogen, Carlsbad, CA, USA) according to the manufacturer’s protocol. Five hours after transfection, cells were incubated with the test compounds in Opti-MEM supplemented with penicillin (100 U/mL), streptomycin (100 μg/mL) and 0.1% DMSO for 16 h before luciferase activity was measured using the Dual-Glo Luciferase Assay System (Promega) according to the manufacturer’s protocol on a Tecan Spark luminometer (Tecan Deutschland GmbH, Crailsheim, Germany). Firefly luminescence was divided by Renilla luminescence and multiplied by 1000 resulting in relative light units (RLU) to normalize for transfection efficiency and cell growth. Fold activation was obtained by dividing the mean RLU of test compound by the mean RLU of the untreated control. All samples were tested in at least three biologically independent experiments in duplicates. For dose-response curve fitting and calculation of EC50 values, the equation “[Agonist] vs. response -- Variable slope (four parameters)” was used in GraphPad Prism (version 7.00, GraphPad Software, La Jolla, CA, USA)."}, "[2]": {"target": "T2, PXR (Homo sapiens, UniProt O75469)", "T2 construct": "expressed in transfected cells; host or cells: HEK293T", "T2 sequence (O75469 146-433)": "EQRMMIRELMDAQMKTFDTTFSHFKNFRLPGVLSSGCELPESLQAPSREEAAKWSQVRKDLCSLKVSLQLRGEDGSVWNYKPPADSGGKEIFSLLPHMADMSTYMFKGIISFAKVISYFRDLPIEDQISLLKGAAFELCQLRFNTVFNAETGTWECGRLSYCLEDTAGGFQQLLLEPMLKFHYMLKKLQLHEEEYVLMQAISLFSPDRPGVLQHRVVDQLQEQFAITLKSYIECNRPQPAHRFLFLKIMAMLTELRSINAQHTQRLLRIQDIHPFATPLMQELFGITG", "experiment": "Gal4 hybrid reporter gene assay, selectivity panel", "format": "cell-based", "settings": "1 µM; relative activation compared to reference agonists", "experimental": "as §1"}, "[3]": {"target": "T3, VDR (Homo sapiens, UniProt P11473)", "T3 construct": "expressed in transfected cells; host or cells: HEK293T", "T3 sequence (P11473 127-423 limits assumed)": "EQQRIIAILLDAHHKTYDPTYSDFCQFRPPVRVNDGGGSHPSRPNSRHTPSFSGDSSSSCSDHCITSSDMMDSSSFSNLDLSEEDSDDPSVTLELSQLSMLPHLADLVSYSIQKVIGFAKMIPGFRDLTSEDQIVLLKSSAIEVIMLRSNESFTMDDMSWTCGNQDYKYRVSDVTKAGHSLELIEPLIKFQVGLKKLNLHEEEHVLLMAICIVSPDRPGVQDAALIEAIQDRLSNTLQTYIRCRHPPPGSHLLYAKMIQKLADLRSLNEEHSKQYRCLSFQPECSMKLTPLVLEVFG", "experiment": "Gal4 hybrid reporter gene assay, selectivity panel", "format": "cell-based", "settings": "1 µM; relative activation compared to reference agonists", "experimental": "as §1"}, "[4]": {"target": "T4, FXR (Homo sapiens, UniProt Q96RI1)", "T4 construct": "expressed in transfected cells; host or cells: HEK293T", "T4 sequence (Q96RI1 262-486 limits assumed)": "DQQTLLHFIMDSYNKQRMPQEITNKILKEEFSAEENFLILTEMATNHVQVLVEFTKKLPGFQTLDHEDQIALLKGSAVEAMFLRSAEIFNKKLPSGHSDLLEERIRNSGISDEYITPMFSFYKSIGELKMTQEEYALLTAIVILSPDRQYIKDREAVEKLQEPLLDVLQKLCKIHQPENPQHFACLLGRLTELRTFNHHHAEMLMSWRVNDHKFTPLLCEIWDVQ", "experiment": "Gal4 hybrid reporter gene assay, selectivity panel", "format": "cell-based", "settings": "1 µM; relative activation compared to reference agonists", "experimental": "as §1"}, "[5]": {"target": "T5, Nur77 (Homo sapiens, UniProt P22736)", "T5 construct": "expressed in transfected cells; host or cells: HEK293T", "T5 sequence (P22736 360-595 limits assumed)": "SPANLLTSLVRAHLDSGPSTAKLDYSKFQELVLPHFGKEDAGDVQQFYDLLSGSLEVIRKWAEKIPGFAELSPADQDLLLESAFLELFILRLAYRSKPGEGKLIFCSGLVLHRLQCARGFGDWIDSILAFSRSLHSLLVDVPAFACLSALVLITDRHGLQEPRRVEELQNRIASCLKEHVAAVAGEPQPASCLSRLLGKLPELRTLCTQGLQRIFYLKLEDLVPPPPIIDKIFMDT", "experiment": "Gal4-Nur77 hybrid reporter gene assay", "format": "cell-based", "experimental": "NR modulation was determined in Gal4 hybrid reporter gene assays in HEK293T cells (German Collection of Microorganisms and Cell Culture GmbH, DSMZ) using pFR-Luc (Stratagene, La Jolla, CA, USA; reporter), pRL-SV40 (Promega, Madison, WI, USA; internal control) and pFA-CMV-hNR-LBD[47],[48] plasmids coding for the hinge region and ligand binding domain of the canonical isoform of the respective NR. Cells were cultured in Dulbecco’s modified Eagle’s medium (DMEM), high glucose supplemented with 10% fetal calf serum (FCS), sodium pyruvate (1 mM), penicillin (100 U/mL), and streptomycin (100 μg/mL) at 37°C and 5% CO2 and seeded in 96-well plates (3×10^4 cells/well). […] Five hours after transfection, cells were incubated with the test compounds in Opti-MEM supplemented with penicillin (100 U/mL), streptomycin (100 μg/mL) and 0.1% DMSO for 16 h before luciferase activity was measured using the Dual-Glo Luciferase Assay System (Promega) according to the manufacturer’s protocol on a Tecan Spark luminometer (Tecan Deutschland GmbH, Crailsheim, Germany). Firefly luminescence was divided by Renilla luminescence and multiplied by 1000 resulting in relative light units (RLU) to normalize for transfection efficiency and cell growth. […]"}, "[6]": {"target": "T6, Nurr1 LBD homodimer (Homo sapiens, UniProt P43354)", "T6 construct": "Biotinylated recombinant Nurr1 LBD protein and sGFP-Nurr1 LBD protein (FRET acceptor) were expressed and purified as described previously[28]; sGFP-Nurr1 LBD protein (FRET acceptor) were expressed and purified as described previously[28]; made in house", "T6 sequence (P43354 360-595 limits assumed)": "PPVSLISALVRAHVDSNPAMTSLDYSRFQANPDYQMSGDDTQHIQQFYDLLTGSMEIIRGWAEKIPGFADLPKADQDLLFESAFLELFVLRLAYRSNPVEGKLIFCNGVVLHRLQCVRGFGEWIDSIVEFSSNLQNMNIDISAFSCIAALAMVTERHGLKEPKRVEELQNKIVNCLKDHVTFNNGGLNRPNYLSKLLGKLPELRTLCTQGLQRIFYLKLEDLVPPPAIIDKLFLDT", "experiment": "Nurr1 homodimerization assay (HTRF)", "format": "biochemical", "settings": "Tb3+-cryptate labeled Nurr1 LBD and sGFP labeled Nurr1 LBD", "experimental": "Modulation of Nurr1 LBD homodimerization by 32 was studied in a homogenous time-resolved fluorescence resonance energy transfer (HTRF) based assay. Biotinylated recombinant Nurr1 LBD protein and sGFP-Nurr1 LBD protein (FRET acceptor) were expressed and purified as described previously. […] Free sGFP was added to keep the total GFP content stable at 0.5 μM. Assay solutions were prepared in HTRF assay buffer (25 mM HEPES pH 7.5, 10% (m/v) glycerol, 5 mM DTT) supplemented with 0.1% (w/v) CHAPS as well as 1% DMSO with 32 at fixed concentrations or DMSO alone as negative control (apo). The FRET donor complex formed from biotinylated Nurr1 LBD (final concentration 0.188 nM) and Tb-SA (0.375 nM) was kept constant while the concentration of sGFP-labeled protein was varied. Samples were equilibrated at RT for 2 h before fluorescence intensities (FI) after excitation at 340 nm were recorded at 520 nm for sGFP acceptor fluorescence and 620 nm for Tb-SA donor fluorescence on a Tecan SPARK plate reader (Tecan Group Ltd.). FI520 nm was divided by FI620 nm and multiplied with 10,000 to give a dimensionless HTRF signal."}, "[7]": {"test_system": "N27 rat dopaminergic neural cells", "experiment": "Nurr1-regulated gene expression (qPCR)", "format": "cell-based", "settings": "N27 cells, 0.3, 1 or 3 μM, 21 h, referenced to GAPDH"}, "[8]": {"target": "T7, DHODH (Homo sapiens, UniProt Q02127)", "T7 construct": "using an N-terminally truncated recombinant DHODH enzyme as described previously[20]", "T7 sequence (Q02127 31-395)": "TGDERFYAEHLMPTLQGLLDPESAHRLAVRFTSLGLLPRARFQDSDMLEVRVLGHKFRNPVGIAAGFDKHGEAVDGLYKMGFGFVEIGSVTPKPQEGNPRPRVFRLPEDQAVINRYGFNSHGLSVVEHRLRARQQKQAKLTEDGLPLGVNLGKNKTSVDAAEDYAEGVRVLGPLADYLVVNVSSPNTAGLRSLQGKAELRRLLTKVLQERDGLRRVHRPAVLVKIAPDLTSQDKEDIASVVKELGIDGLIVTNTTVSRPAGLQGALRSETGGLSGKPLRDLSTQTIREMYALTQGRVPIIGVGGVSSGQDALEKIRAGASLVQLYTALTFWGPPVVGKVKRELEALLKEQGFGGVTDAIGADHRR", "experiment": "DHODH inhibition colorimetric assay on recombinant human protein", "format": "biochemical", "settings": "recombinant human DHODH, colorimetric; mean ± S.E.M., n ≥ 3; read-out: IC50 (DHODH)"}},
  "data": [
    {"compound": "COc1cccc(-c2ccc(NC(=O)C3=C(c4nn[nH]n4)CCC3)c(F)c2)c1", "note": "[compound 32, N-{3-Fluoro-3’-methoxy-[1,1'-biphenyl]-4-yl}-2-(2H-tetrazol-5-yl)cyclopent-1-ene-1-carboxamide]", "values": [
      {"measurement": "activity on CAR", "setting": "[1]", "result": "no activity"},
      {"measurement": "activity on PXR", "setting": "[2]", "result": "no activity"},
      {"measurement": "activity on VDR", "setting": "[3]", "result": "no activity"},
      {"measurement": "activity on FXR", "setting": "[4]", "result": "no activity"},
      {"measurement": "EC50", "setting": "[5]", "result": "0.16 ± 0.03", "unit": "µM"},
      {"measurement": "fold activation (Nur77)", "setting": "[5]", "result": 1.9, "unit": "fold"},
      {"measurement": "impact on Nurr1 dimer formation", "setting": "[6]", "result": "robustly diminished Nurr1 dimer formation"},
      {"measurement": "BDNF mRNA expression", "setting": "[7]", "result": "enhanced expression"},
      {"measurement": "BIRC5 mRNA expression", "setting": "[7]", "result": "robust induction"},
      {"measurement": "CCND2 mRNA expression", "setting": "[7]", "result": "enhanced expression"},
      {"measurement": "CRMP4 mRNA expression", "setting": "[7]", "result": "enhanced expression"},
      {"measurement": "FLRT2 mRNA expression", "setting": "[7]", "result": "enhanced expression"},
      {"measurement": "SOD2 mRNA expression", "setting": "[7]", "result": "robust induction"},
      {"measurement": "Sesn3 mRNA expression", "setting": "[7]", "result": "robust induction"},
      {"measurement": "TH mRNA expression", "setting": "[7]", "result": "enhanced the expression"},
      {"measurement": "XIAP mRNA expression", "setting": "[7]", "result": "robust induction"},
      {"measurement": "IC50", "setting": "[8]", "result": "10 ± 2", "unit": "µM"}
    ]}
  ]
}
